{"source": "patent US20220228112A1", "about": "“MEDIUM FOR CULTURING HEPATOCYTE, METHOD OF PRODUCING HEPATOCYTE, AND HEPATOCYTE” (FUJIFILM Corporation, priority 2019, published 2022)", "system": "human iPS cell-derived hepatocytes", "test": "P450-Glo CYP3A4 assay, CYP3A4 activity value per cell", "assay_type": "cell-based", "conditions": "FIG. 1C; added to medium that does not contain FBS, EGF and A83-01; culture period of 1 week", "experimental": "For the cell culture medium, to a medium obtained by mixing equal amounts of a DMEM/F12 basal medium and an RPMI 1640 basal medium, each of the components was added so that the concentration thereof was to be the following final concentration.\nFurther, to the above composition, the following components were added in combination to prepare culture media for various hepatocytes,\nUsing the above-described various media, human iPS cell-derived hepatocytes (FUJIFILM Wako Pure Chemical Corporation, Cat #: C1026) were seeded on a collagen-coated 96-well plate at 1×10^5 cells per well and cultured in an incubator at 37° C. and 5% carbon dioxide gas, and the medium was exchanged every 24 hours. The luminescence intensity by a P450-Glo CYP3A4 assay (Promega Corporation) was measured by using an EnSpire multimode plate reader (PerkinElmer, Inc.) and corrected by the number of cells in the well to calculate the CYP3A4 activity value per cell in the culture period of 1 week."}
{"smiles": "NC(=O)c1cccnc1", "note": "[nicotinamide]", "values": [{"measurement": "effect on function of hepatocytes (CYP3A4 activity per cell)", "result": "positive factors for improving the function of hepatocytes"}]}
